Measurements taken from EPA's ToxValDB 9.5 (doi:10.2903/j.efsa.2016.4575).
≈ marks a conversion by molar mass, not a printed value.

What was measured:
Bird = settings: acute; oral; unspecified; mortality
Tagia sp. = settings: chronic/long-term; mortality
Coturnix japonica = settings: acute; oral; M; mortality
Bibionidae = settings: chronic/long-term; duration: 23 days
Canidae = settings: Dog Other; for NOAEL: oral, hematological
Folsomia candida = settings: chronic/long-term; reproduction
Apis mellifera = settings: acute, mortality
Colinus virginianus = settings: chronic
Daphnia magna = settings: chronic/long-term; duration: 21 days
Typhlodromus pyri = assay: LR50; higher = less toxic; settings: not reported; mortality

Compound `COc1cc(OC)nc(NC(=O)NS(=O)(=O)c2ncccc2C(F)(F)F)n1` [Flazasulfuron] has an LD50 (Bird) of 2120 mg/kg-day, an LC50 (Oncorhynchus mykiss; acute, duration: 96 hours, mortality) of 22 µg/mL (≈ 54 µM) and an NOEC (Oncorhynchus mykiss; chronic/long-term, duration: 21 days) of 5 mg/L. It also gave an NOEC (Tagia sp.) of 8 mg/kg, an LD50 (Coturnix japonica) of 995 mg/kg-day and an NOEC (Bibionidae) of 0.1 mg/L. The NOAEL (Canidae; chronic, duration: 1 years) was 2 mg/kg-day, the LEC (Canidae; repeat dose other) was 2 mg/kg-day and the NOAEL (Canidae; subchronic, duration: 90 days) was 2 mg/kg-day. For the same compound, the NOEC (Folsomia candida) was 125 mg/kg, the LD50 (Rattus norvegicus; acute, oral, mortality) was 1320 mg/kg-day and the NOAEL (Rattus norvegicus; chronic, duration: 2 years, other) was 1.3 mg/kg-day. It also gave an NOAEL (Rattus norvegicus; reproduction developmental) of 11 mg/kg-day, an NOAEL (Rattus norvegicus; reproduction developmental, body weight) of 100 mg/kg-day and an LD50 (Apis mellifera; dermal) of over 25.9 µg/piece. For the same compound, the LD50 (Apis mellifera; oral, unspecified) was over 46.3 µg/piece, the NOAEL (Colinus virginianus) was 95.9 mg/kg-day and the NOEC (Daphnia magna) was 6.2 mg/L. It also gave an LR50 (Typhlodromus pyri) of over 50 g/ha.
